Assay results published in US20200325178A1, “PEPTIDE NUCLEIC ACID MOLECULES FOR TREATMENT OF GRAM POSITIVE BACTERIAL INFECTION” (priority 2017, published 2020).

Assays:
[1] = test system: MSSA clinical isolates and ATCC strains; experiment: MIC and MBC against MSSA clinical isolates and ATCC strains; type: cell-based, Staphylococcus aureus; set-up: MIC: unit not given here
Protocol: (§1) Bioscreen-C instrument was used to detect the MIC and MBC of PNA-CPP derivatives against S. aureus MSSA strains. Different concentrations of PNA-CPP derivatives were prepared in 10 mM of sodium bicarbonate buffer pH-7.4 and added to ˜5.0 Log 10 CFUs in a Honey comb Bioscreen-C plate.
After the growth curve assays, the number of colony forming units (CFU) were counted to determine the MIC and MBC of each PNA-CPP derivative against MSSA.
(§2) Minimum inhibitory concentration (MIC) analyses were performed as described in Clinical and Laboratory Standards Institute, Methods for Dilution Antimicrobial Susceptibility Tests for Bacteria that Grow Aerobically, 7th ed.; Approved Standard M7-A7; CLSI: Wayne, Pa., USA, 2006; volume 26, No. 2. Vancomycin and Oxacillin were used as controls. MIC was determined as the lowest concentration of agent that inhibits bacterial growth detected at A420-580 nm.

[2] = test system: S. aureus (ATCC BAA-1556); experiment: Murine thigh infection model; type: in vivo; settings: neutropenic CD-1 mice; 25 mg/kg, 0.2 ml SC, +1 hr; 24 hrs
Protocol: Female 5-6 week old CD-1 (18-22 gm) were used in this study. Mice were quarantined for 48 hours before use and housed in groups of 5 with free access to food and water during the study.
The animals were made neutropenic by administration of cyclophosphamide on Days −4 and −1. On Days −4 150 mg/kg of cyclohsphamide administered by intraperitoneal route and 100 mg/kg was administered on Days −1. Days listed are referenced from the date of infection (study day-Day 0).
On Day 0, animals were inoculated intramuscularly (0.1 ml/thigh) with ˜1×10^5 CFU/mouse of S. aureus (ATCC BAA-1556) into right thigh. […] Group-3 of mice were administered with vancomycin at 25 mg/kg via subcutaneous route. Group-4 of mice administered with buffer and group-5 used as the inoculation control.
Mice were euthanized by CO2 inhalation and thighs were removed, and placed in 2 ml of sterile PBS, homogenized, serially diluted and plated to determine the CFU counts. Plates were incubated 18-24 hours and CFUs were counted.
Colony were counted and the number of colonies is converted to CFU/thigh by multiplying the number of colonies by the volume of the thigh homogenate spotted and the dilution at which the colonies were counted (5-50 colonies/spot). All count data were transformed into logo CFU/thigh for calculation of means and standard deviations.

[3] = test system: MRSA clinical isolates and ATCC strains; experiment: MIC and MBC against MRSA clinical isolates and ATCC strains; type: cell-based, Staphylococcus aureus; set-up: unit not given here
Protocol: (§3) Bioscreen-C instrument was used to detect the MIC and MBC of PNA-CPP derivatives against S. aureus MRSA strains. Different concentration of PNA-CPP derivatives were prepared in 10 mM of sodium bicarbonate buffer pH-7.4 and added to ˜5.0 Log 10 CFUs in a Honey comb Bioscreen-C plate.
After the growth curve assays, the number of colony forming units (CFU) were counted to determine the MIC and MBC of each PNA-CPP derivative against MRSA.
as §2, with “Vancomycin and Oxacillin were used as controls.” left out

S. aureus MSSA strains = experiment: Bioscreen-C dose response growth curve of MSSA over 24 hours; type: cell-based, Staphylococcus aureus; settings: HCl salts, doses from 100 μg downwards, 10 mM sodium bicarbonate buffer pH-7.4, OD 420-580 nm
Protocol: as §1
Compound I-V were assayed against MSSA. FIG. 12-16 show a dose response growth curve of MSSA in presence of increasing concentrations of Compound I-HCl (FIG. 12), Compound II-HCl (FIG. 13), Compound III-HCl (FIG. 14), Compound IV-HCl (FIG. 15), and Compound V-HCl (FIG. 16), determined in a Bioscreen-C spectrophotometer.

S. aureus MRSA strains = experiment: Bioscreen-C dose response growth curve of MRSA over 24 hours; type: cell-based, Staphylococcus aureus; settings: HCl salts, doses from 100 μg downwards, 10 mM sodium bicarbonate buffer pH-7.4, OD 420-580 nm
Protocol: as §3
Compound I-V were assayed against MRSA. FIG. 6-10 show a dose response growth curve of MRSA in presence of increasing concentrations of Compound I-HCl (FIG. 6), Compound II-HCl (FIG. 7), Compound III-HCl (FIG. 8), Compound IV-HCl (FIG. 9), and Compound V-HCl (FIG. 10), determined in a Bioscreen-C spectrophotometer.

MSSA = experiment: In vitro assay of emergence of resistance, MSSA, 8 days; type: cell-based, S. aureus; settings: 6.25 μg (twice MBC) in one ml Mueller Hinton broth, 37° C., through Day 8
Protocol: (§4) To determine the development of resistance in MRSA and MSSA strains against Compound I-HCl and Compound IV-HCl, an in vitro assay was performed. Twice the amount of MBC of Compound I-HCl (6.25 μg) and Compound IV-HCl (6.25 μg) were mixed with ˜5.0 log 10 CFUs in one ml of Mueller Hinton broth and incubated for 8 days at 37° C. Eight tubes of culture were used for each drug and bacterial strains. At 24 hours of interval, culture tubes were centrifuged and spent media were replaced with fresh media in presence of Compound I-HCl and Compound IV-HCl and further incubated to observe the growth of S. aureus strains. At 24 hours interval, one set of culture tube exposed to drugs were selected and a fraction of the culture used to plate on agar plates to observe the reduction of CFU counts as compared to untreated control. The rest of the culture samples were allowed to grow without any drug for additional 24 hours to observe the growth of S. aureus strains. One set of culture tubes without drug was used as the positive control.
The assays above were also performed using MSSA strains and Compounds I and IV.

[4] = Single ascending intravenous dose tolerability (MTD) in mice; type: in vivo; settings: 10 mg/kg single intravenous bolus dose
Protocol: Single ascending intravenous (IV) dose study was performed to determine tolerability of the drug in mice.
Initially, Compound I-HCl and Compound IV-HCl were administered with a 10 mg/kg intravenous bolus dose using a 10 mL/kg dose volume (0.2 mL) and observed the effects before proceeding to the next higher dose. […] However, higher concentration (>15 mg/kg) had shown adverse effect and death in mice within 30 mins of administration of the drug.

MRSA = experiment: In vitro assay of emergence of resistance, MRSA, 8 days; type: cell-based, S. aureus; settings: 6.25 μg (twice MBC) in one ml Mueller Hinton broth, 37° C., through Day 8
Protocol: as §4

[5] = MSSA table, isolate MRSA#16 [sic]
[6] = MSSA table, isolate MRSA#25 [sic]
[7] = MSSA table, isolate MRSA#27 [sic]
[8] = MSSA table, isolate MRSA#34 [sic]
[9] = MSSA table, isolate MRSA#38 [sic]
[10] = MSSA table, isolate MRSA#57 [sic]
[11] = MSSA table, isolate MRSA#60 [sic]
[12] = MSSA table, isolate printed MRSA#49
[13] = MSSA table, isolate printed MRSA#61

With Cc1onc(-c2ccccc2)c1C(=O)N[C@@H]1C(=O)N2[C@@H]1SC(C)(C)[C@@H]2C(=O)O [Oxacillin, reference compound] the MIC [1, 5] was 2 ∞g, the MIC [1, 6] was 2 ∞g and the MIC [1, 7] was 2 ∞g. The MIC [1, 8] was 2 ∞g, the MIC [1, 9] was 2 ∞g and the MIC ([1]; MSSA table, isolate MRSA#55) was 2 ∞g. The MIC [1, 10] was 4 ∞g, the MIC [1, 11] was 2 ∞g and the MIC [1, 12] was 2 ∞g. The MIC [1, 13] was 2 ∞g and the MIC ([1]; strain BAA 1721) was <2 ∞g.

In the case of CN[C@H](CC(C)C)C(=O)N[C@H]1C(=O)N[C@@H](CC(N)=O)C(=O)N[C@H]2C(=O)N[C@H]3C(=O)N[C@H](C(=O)N[C@H](C(=O)O)c4cc(O)cc(O)c4-c4cc3ccc4O)[C@H](O)c3ccc(c(Cl)c3)Oc3cc2cc(c3O[C@@H]2O[C@H](CO)[C@@H](O)[C@H](O)[C@H]2O[C@H]2C[C@](C)(N)[C@H](O)[C@H](C)O2)Oc2ccc(cc2Cl)[C@H]1O [Vancomycin, reference compound], the MIC [1, 5] is reported as 5 ∞g, the MIC [1, 6] is reported as 10 ∞g and the MIC [1, 7] is reported as 10 ∞g. For the same compound, the MIC [1, 8] was 5 ∞g, the MIC [1, 9] was 10 ∞g and the MIC ([1]; MSSA table, isolate MRSA#55) was 10 ∞g. For the same compound, the MIC [1, 10] was 20 ∞g, the MIC [1, 11] was 10 ∞g and the MIC [1, 12] was 10 ∞g. The MIC [1, 13] was 5 ∞g, the MIC ([1]; strain BAA 1721) was 10 ∞g and the “Mean Log 10 CFU/Thigh” value [2] was 4.39 Log 10 CFU/Thigh. For the same compound, the “Mean Log 10 Change vs. 1 hr” value [2] was −1.23 Log 10 and the “Mean Log 10 Change vs. 24 hr (vehicle)” value [2] was −4.14 Log 10.

For “Compound II: PNA-CPP conjugate: PNA SEQ ID NO: 51, AEA linker, CPP BXRXRRXRRXRRXR; FIG. 2 (CGTCATACGCGGTCC; all peptide nucleic acid (PNA); PNA conjugated to cell-penetrating peptide BXRXRRXRRXRRXR via AEA linker, end not given here)”, the MBC ([3]; isolate MRSA#1) was 3.25, the MIC ([3]; isolate MRSA#1) was 1.56 and the MBC ([3]; isolate MRSA#3) was 3.25. The MIC ([3]; isolate MRSA#3) was 1.56, the MBC ([3]; isolate MRSA#6) was 3.25 and the MIC ([3]; isolate MRSA#6) was 1.56. The MBC ([3]; isolate MRSA#15) was 3.25, the MIC ([3]; isolate MRSA#15) was 1.56 and the MBC ([3]; isolate MRSA#28) was 3.25. The MIC ([3]; isolate MRSA#28) was 1.56, the MBC ([3]; isolate MRSA#31) was 3.25 and the MIC ([3]; isolate MRSA#31) was 1.56. The MBC ([3]; isolate MRSA#37) was 1.56, the MIC ([3]; isolate MRSA#37) was 0.78 and the MBC ([3]; isolate MRSA#39) was 3.25. It also gave an MIC ([3]; isolate MRSA#39) of 1.56, an MBC ([3]; isolate MRSA#42) of 1.56 and an MIC ([3]; isolate MRSA#42) of 0.78. For the same compound, the MBC ([3]; isolate MRSA#43) was 1.56, the MIC ([3]; isolate MRSA#43) was 0.78 and the MBC ([3]; strain USA 300) was 1.56. The MIC ([3]; strain USA 300) was 0.78, the “lowest dose at which no MSSA growth was observed (growth curve)” value (S. aureus MSSA strains) was 6.25 µg and the MBC [1, 5] was 3.25 ∞g. For the same compound, the MIC [1, 5] was 1.56 ∞g, the MBC [1, 6] was 3.25/3.25 ∞g and the MIC [1, 6] was 3.25/3.25 ∞g. For the same compound, the MBC [1, 7] was 1.56 ∞g, the MIC [1, 7] was 0.78 ∞g and the MBC [1, 8] was 3.25/3.25 ∞g. For the same compound, the MIC [1, 8] was 3.25/3.25 ∞g, the MBC [1, 9] was 3.25/3.25 ∞g and the MIC [1, 9] was 3.25/3.25 ∞g. For the same compound, the MBC ([1]; MSSA table, isolate MRSA#55) was 3.25/3.25 ∞g, the MIC ([1]; MSSA table, isolate MRSA#55) was 3.25/3.25 ∞g and the MBC [1, 10] was 3.25 ∞g. The MIC [1, 10] was 1.56 ∞g, the MBC [1, 11] was 1.56 ∞g and the MIC [1, 11] was 0.78 ∞g. For the same compound, the MBC [1, 12] was 3.25/3.25 ∞g, the MIC [1, 12] was 3.25/3.25 ∞g and the MBC [1, 13] was 1.56 ∞g. For the same compound, the MIC [1, 13] was 0.78 ∞g, the MBC ([1]; strain BAA 1721) was 1.56 ∞g and the MIC ([1]; strain BAA 1721) was 0.78 ∞g.

With “Compound III: PNA-CPP conjugate: PNA SEQ ID NO: 51, Glycine-Glycine linker, CPP BXRXRRXRRXRRXR; FIG. 3 (CGTCATACGCGGTCC; all peptide nucleic acid (PNA); PNA conjugated to cell-penetrating peptide via glycine-glycine linker, end not given here, further chemistry not fully specified)” the “lowest dose at which no MRSA growth was observed (growth curve)” value (S. aureus MRSA strains) was 12.5 µg and the “lowest dose at which no MSSA growth was observed (growth curve)” value (S. aureus MSSA strains) was 25 µg.

In the case of “Compound IV: PNA-CPP conjugate: PNA SEQ ID NO: 51, AEEA linker, homo-arginine CPP BXhRXhRhRXhRhRXhRhRXhR; FIG. 4 (CGTCATACGCGGTCC; all peptide nucleic acid (PNA); homo-arginine cell-penetrating peptide attached via AEEA linker, further chemistry not fully specified)”, the “MSSA CFU counts and emergence of resistant strains” value (MSSA) is reported as “reduced MSSA CFUs without emergence of resistant strains”, the “lowest dose at which no MSSA growth was observed (growth curve)” value (S. aureus MSSA strains) is reported as 6.25 µg and the tolerability in mice [4] is reported as “well tolerated”. For the same compound, the “MRSA CFU counts and emergence of resistant strains” value (MRSA) was “reduced MRSA CFUs without emergence of resistant strains”.

With “Compound V: PNA-CPP conjugate: PNA SEQ ID NO: 51, AEEA linker, D-arginine CPP BXdRXdRdRXdRdRXdRdRXdR; FIG. 5 (CGTCATACGCGGTCC; all peptide nucleic acid (PNA); PNA conjugated to D-arginine cell-penetrating peptide via AEEA linker, end not given here, further chemistry not fully specified)” the “lowest dose at which no MSSA growth was observed (growth curve)” value (S. aureus MSSA strains) was 25 µg.
